Measured values taken from patent US20250263440A1, “CD38-BINDING AGENTS AND USES THEREOF” (PeptiDream Inc., priority 2019, published 2025).
Positions of bridges follow the written chain, without caps; N, C: chain ends. Non-standard residues stand in square brackets, D forms with d. Residues, ends and D or L forms follow the SMILES beside them. *: point of attachment. Bip = N[C@@H](Cc1ccc(-c2ccccc2)cc1)C(=O)O; Met(O2) = CS(=O)(=O)CC[C@H](N)C(=O)O; hArg = N=C(N)NCCCC[C@H](N)C(=O)O; Ahp(2) = CCCCC[C@H](N)C(=O)O; hSer = N[C@@H](CCO)C(=O)O; X1 = COCCOCCOCCOCCC(=O)*

Biological target: His-tagged CD38 (Homo sapiens, UniProt P28907)
Assay: SPR assay (Biacore S200, Sensor Chip NTA, single-cycle kinetics) of SEQ ID NO.1 variants against His-tagged CD38
Type: binding
Details: for kon / koff: SPR Biacore S200, NTA chip, His-tagged CD38; for kon: read-out: Ka (association rate constant); for koff: read-out: Kd (dissociation rate constant); for Kd: SPR Biacore S200, His-tagged CD38, calculated from ka and kd
Description: SPR assay was performed using Biacore S200 (Cytiva: Former GE Healthcare).
After the equilibration of Series S Sensor Chip NTA (produced by Cytiva: Former GE Healthcare) with Running Buffer (10 mM HEPES pH7.4, 150 mM NaCl, 0.05% Tween 20), followed by injection of 350 mM EDTA at a flow rate of 10 L/min for 60 seconds and […] NiCl2 at a flow rate of 10 L/min for 60 seconds, then 3 mM EDTA at a flow rate of 10 L/min for 120 seconds, sequently, to wash the sensor chip.
EDC/NHS mixture was injected at a flow rate of […] for 7 minutes to thereby activate the functional groups on sensor chip. His-tagged CD38 in Running Buffer (10 mM HEPES pH7.4, 150 mM NaCl, 0.05% Tween 20) was injected immobilized to at a flow rate of […]. For 7 minutes to immobilize the CD38 on the substrate surfaces of the sensor chip. Then Ethanolamine was injected at a flow rate of […] for 7 minutes.
1.0 M Ethanolamine(aq.) was injected at a flow rate of 10 L/min for 420 seconds for capping. 10 mM peptides (which were synthesised described above) in DMSO were diluted to obtain 10 uM with Running Buffer, and prepared 100 nM, 50 nM, 25 nM, 10 nM, 5 nM of each peptide's solutions (Peptide Samples).
Using these Peptide Samples, kinetics of peptides against His-tagged CD38 was measured. The method adopted for sample measurement was a single-cycle kinetics method. The analysis was conducted using the evaluation software 1.1 provided with Biacore S200. A DMSO correction curve obtained by solvent correction measurements was applied for the analysis. Kinetics fitting was done on the difference data obtained by subtracting the baseline data from sample measurement data.
KD values were calculated based on the association rate constant (ka) and dissociation rate constant (kd).

Structure (SMILES)	kon	koff	Kd
CCCCC[C@@H]1NC(=O)[C@H](CCCNC(=N)N)NC(=O)[C@H](C)NC(=O)CSC[C@@H](C(N)=O)NC(=O)[C@H](CC(=O)O)NC(=O)[C@H](CCCCC)NC(=O)[C@H](Cc2ccc(-c3ccccc3)cc2)NC(=O)[C@H](CC(C)C)NC(=O)[C@H](C(C)C)NC(=O)[C@H](CCC(N)=O)NC(=O)[C@H](CC(=O)O)NC(=O)[C@H](Cc2c[nH]cn2)NC(=O)[C@H](Cc2ccc(O)cc2)NC1=O [compound 4] ({CH2CO}-AR[Ahp(2)]YHDQVL[Bip][Ahp(2)]DC-NH2; thioether N-13 (inferred); N-terminus and C-terminus assumed)	533000 M⁻¹ s⁻¹	0.0023 s⁻¹	
CCCCC[C@@H]1NC(=O)[C@H](CCCNC(=N)N)NC(=O)[C@H](C)NC(=O)CSC[C@@H](C(N)=O)NC(=O)[C@H](CC(=O)O)NC(=O)[C@H](CCCCC)NC(=O)[C@H](Cc2ccc(-c3ccccc3)cc2)NC(=O)[C@H](CC(C)C)NC(=O)[C@H](C(C)C)NC(=O)[C@H](CC(N)=O)NC(=O)[C@H](CC(=O)O)NC(=O)[C@H](Cc2c[nH]cn2)NC(=O)[C@H](Cc2ccc(O)cc2)NC1=O [compound 5] ({CH2CO}-AR[Ahp(2)]YHDNVL[Bip][Ahp(2)]DC-NH2; thioether N-13)	766000 M⁻¹ s⁻¹	0.00161 s⁻¹	
CCCCC[C@@H]1NC(=O)[C@H](CCCNC(=N)N)NC(=O)[C@H](C)NC(=O)CSC[C@@H](C(N)=O)NC(=O)[C@H](CC(=O)O)NC(=O)[C@H](CCCCC)NC(=O)[C@H](Cc2ccc(-c3ccccc3)cc2)NC(=O)[C@H](CC(C)C)NC(=O)[C@H](C(C)C)NC(=O)[C@H](CCC(=O)O)NC(=O)[C@H](CC(=O)O)NC(=O)[C@H](Cc2c[nH]cn2)NC(=O)[C@H](Cc2ccc(O)cc2)NC1=O [compound 10] ({CH2CO}-AR[Ahp(2)]YHDEVL[Bip][Ahp(2)]DC-NH2; thioether N-13 (inferred); N-terminus and C-terminus assumed)	471000 M⁻¹ s⁻¹	0.00223 s⁻¹	
CCCCC[C@@H]1NC(=O)[C@H](CCCNC(=N)N)NC(=O)[C@H](C)NC(=O)CSC[C@@H](C(N)=O)NC(=O)[C@H](CC(=O)O)NC(=O)[C@H](CCCCC)NC(=O)[C@H](Cc2ccc(-c3ccccc3)cc2)NC(=O)[C@H](CC(C)C)NC(=O)[C@H](C(C)C)NC(=O)[C@H](CCCNC(=N)N)NC(=O)[C@H](CC(=O)O)NC(=O)[C@H](Cc2c[nH]cn2)NC(=O)[C@H](Cc2ccc(O)cc2)NC1=O [compound 11] ({CH2CO}-AR[Ahp(2)]YHDRVL[Bip][Ahp(2)]DC-NH2; thioether N-13)	1.6e+06 M⁻¹ s⁻¹	0.0019 s⁻¹	
CCCCC[C@@H]1NC(=O)[C@H](CCCNC(=N)N)NC(=O)[C@H](C)NC(=O)CSC[C@@H](C(N)=O)NC(=O)[C@H](CC(=O)O)NC(=O)[C@H](CCCCC)NC(=O)[C@H](Cc2ccc(-c3ccccc3)cc2)NC(=O)[C@H](CC(C)C)NC(=O)[C@H](C(C)C)NC(=O)[C@H](CCCCNC(=N)N)NC(=O)[C@H](CC(=O)O)NC(=O)[C@H](Cc2c[nH]cn2)NC(=O)[C@H](Cc2ccc(O)cc2)NC1=O [compound 12] ({CH2CO}-AR[Ahp(2)]YHD[hArg]VL[Bip][Ahp(2)]DC-NH2; thioether N-13 (inferred); N-terminus and C-terminus assumed)	660000 M⁻¹ s⁻¹	0.0015 s⁻¹	
CCCCC[C@@H]1NC(=O)[C@H](CCCNC(=N)N)NC(=O)[C@H](C)NC(=O)CSC[C@@H](C(N)=O)NC(=O)[C@H](CC(=O)O)NC(=O)[C@H](CCCCC)NC(=O)[C@H](Cc2ccc(-c3ccccc3)cc2)NC(=O)[C@H](CCS(C)(=O)=O)NC(=O)[C@H](C(C)C)NC(=O)[C@H](CCCCNC(=N)N)NC(=O)[C@H](CC(=O)O)NC(=O)[C@H](Cc2c[nH]cn2)NC(=O)[C@H](Cc2ccc(O)cc2)NC1=O [compound 16] ({CH2CO}-AR[Ahp(2)]YHD[hArg]V[Met(O2)][Bip][Ahp(2)]DC-NH2; thioether N-13)	870000 M⁻¹ s⁻¹	0.015 s⁻¹	17.3 nM
CCCCC[C@@H]1NC(=O)[C@H](Cc2ccc(-c3ccccc3)cc2)NC(=O)[C@H](CC(C)C)NC(=O)[C@H](C(C)C)NC(=O)[C@H](CCC(=O)O)NC(=O)[C@H](CC(=O)O)NC(=O)[C@H](Cc2c[nH]cn2)NC(=O)[C@H](Cc2ccc(O)cc2)NC(=O)[C@H](CCCCC)NC(=O)[C@H](CCCNC(=N)N)NC(=O)[C@H](CCCCNC(=O)CCOCCOCCOCCOC)NC(=O)CSC[C@@H](C(N)=O)NC(=O)[C@H](CC(=O)O)NC1=O [compound 17] ({CH2CO}-K(X1)R[Ahp(2)]YHDEVL[Bip][Ahp(2)]DC-NH2; thioether N-13)	210000 M⁻¹ s⁻¹	0.00091 s⁻¹	4.37 nM

Results, then the compound that gave them:

kon	koff	Kd	Structure (SMILES)
631000 M⁻¹ s⁻¹	0.00186 s⁻¹	2.94 nM	CCCCC[C@@H]1NC(=O)[C@H](CCCNC(=N)N)NC(=O)[C@H](C)NC(=O)CSC[C@@H](C(N)=O)NC(=O)[C@H](CC(=O)O)NC(=O)[C@H](CCCCC)NC(=O)[C@H](Cc2ccc(-c3ccccc3)cc2)NC(=O)[C@H](CC(C)C)NC(=O)[C@H](C(C)C)NC(=O)[C@H](CCS(C)(=O)=O)NC(=O)[C@H](CC(=O)O)NC(=O)[C@H](Cc2c[nH]cn2)NC(=O)[C@H](Cc2ccc(O)cc2)NC1=O [compound 6] ({CH2CO}-AR[Ahp(2)]YHD[Met(O2)]VL[Bip][Ahp(2)]DC-NH2; thioether N-13)
819000 M⁻¹ s⁻¹	0.0535 s⁻¹		CCCCC[C@@H]1NC(=O)[C@H](CCCNC(=N)N)NC(=O)[C@H](C)NC(=O)CSC[C@@H](C(N)=O)NC(=O)[C@H](CC(=O)O)NC(=O)[C@H](CCCCC)NC(=O)[C@H](Cc2ccc(-c3ccccc3)cc2)NC(=O)[C@H]([C@@H](C)O)NC(=O)[C@H](C(C)C)NC(=O)CNC(=O)[C@H](CC(=O)O)NC(=O)[C@H](Cc2c[nH]cn2)NC(=O)[C@H](Cc2ccc(O)cc2)NC1=O [compound 7] ({CH2CO}-AR[Ahp(2)]YHDGVT[Bip][Ahp(2)]DC-NH2; thioether N-13)
790000 M⁻¹ s⁻¹	0.0306 s⁻¹	38.8 nM	CCCCC[C@@H]1NC(=O)[C@H](CCCNC(=N)N)NC(=O)[C@H](C)NC(=O)CSC[C@@H](C(N)=O)NC(=O)[C@H](CC(=O)O)NC(=O)[C@H](CCCCC)NC(=O)[C@H](Cc2ccc(-c3ccccc3)cc2)NC(=O)[C@H](CCO)NC(=O)[C@H](C(C)C)NC(=O)CNC(=O)[C@H](CC(=O)O)NC(=O)[C@H](Cc2c[nH]cn2)NC(=O)[C@H](Cc2ccc(O)cc2)NC1=O [compound 8] ({CH2CO}-AR[Ahp(2)]YHDGV[hSer][Bip][Ahp(2)]DC-NH2; thioether N-13)
664000 M⁻¹ s⁻¹	0.00627 s⁻¹		CCCCC[C@@H]1NC(=O)[C@H](CCCNC(=N)N)NC(=O)[C@H](C)NC(=O)CSC[C@@H](C(N)=O)NC(=O)[C@H](CC(=O)O)NC(=O)[C@H](CCCCC)NC(=O)[C@H](Cc2ccc(-c3ccccc3)cc2)NC(=O)[C@H](CCS(C)(=O)=O)NC(=O)[C@H](C(C)C)NC(=O)CNC(=O)[C@H](CC(=O)O)NC(=O)[C@H](Cc2c[nH]cn2)NC(=O)[C@H](Cc2ccc(O)cc2)NC1=O [compound 9] ({CH2CO}-AR[Ahp(2)]YHDGV[Met(O2)][Bip][Ahp(2)]DC-NH2; thioether N-13 (inferred); N-terminus and C-terminus assumed)
1.1e+06 M⁻¹ s⁻¹	0.024 s⁻¹		CCCCC[C@@H]1NC(=O)[C@H](CCCNC(=N)N)NC(=O)[C@H](C)NC(=O)CSC[C@@H](C(N)=O)NC(=O)[C@H](CC(=O)O)NC(=O)[C@H](CCCCC)NC(=O)[C@H](Cc2ccc(-c3ccccc3)cc2)NC(=O)[C@H](CCS(C)(=O)=O)NC(=O)[C@H](C(C)C)NC(=O)[C@H](CCC(N)=O)NC(=O)[C@H](CC(=O)O)NC(=O)[C@H](Cc2c[nH]cn2)NC(=O)[C@H](Cc2ccc(O)cc2)NC1=O [compound 13] ({CH2CO}-AR[Ahp(2)]YHDQV[Met(O2)][Bip][Ahp(2)]DC-NH2; thioether N-13)
570000 M⁻¹ s⁻¹	0.022 s⁻¹		CCCCC[C@@H]1NC(=O)[C@H](CCCNC(=N)N)NC(=O)[C@H](C)NC(=O)CSC[C@@H](C(N)=O)NC(=O)[C@H](CC(=O)O)NC(=O)[C@H](CCCCC)NC(=O)[C@H](Cc2ccc(-c3ccccc3)cc2)NC(=O)[C@H](CCS(C)(=O)=O)NC(=O)[C@H](C(C)C)NC(=O)[C@H](CCC(=O)O)NC(=O)[C@H](CC(=O)O)NC(=O)[C@H](Cc2c[nH]cn2)NC(=O)[C@H](Cc2ccc(O)cc2)NC1=O [compound 14] ({CH2CO}-AR[Ahp(2)]YHDEV[Met(O2)][Bip][Ahp(2)]DC-NH2; thioether N-13 (inferred); N-terminus and C-terminus assumed)
1.4e+06 M⁻¹ s⁻¹	0.013 s⁻¹	9.42 nM	CCCCC[C@@H]1NC(=O)[C@H](CCCNC(=N)N)NC(=O)[C@H](C)NC(=O)CSC[C@@H](C(N)=O)NC(=O)[C@H](CC(=O)O)NC(=O)[C@H](CCCCC)NC(=O)[C@H](Cc2ccc(-c3ccccc3)cc2)NC(=O)[C@H](CCS(C)(=O)=O)NC(=O)[C@H](C(C)C)NC(=O)[C@H](CCCNC(=N)N)NC(=O)[C@H](CC(=O)O)NC(=O)[C@H](Cc2c[nH]cn2)NC(=O)[C@H](Cc2ccc(O)cc2)NC1=O [compound 15] ({CH2CO}-AR[Ahp(2)]YHDRV[Met(O2)][Bip][Ahp(2)]DC-NH2; thioether N-13)
